One series can be described thus: physchem. It counts as physicochemical. The conditions noted are these: for solubility: 20 °C. From the text: (§1) The compositions herein include one or more solubilizers and/or co-solvents to help solubilize the HCA. […] Without being limited by theory, it is believed that the decreased solubility of an HCA at lower pH is due to reduced ability of the HCA to undergo the acid dissociation that forms the conjugate base species observed at higher pH levels. At pH 7, p-coumaric acid exists at approximately 99.6% in its base form; whereas at pH 3, the conjugate base form is only present at approximately […]. As a result of its relatively poor solubility, HCAs can form crystals in an aqueous, low-pH skin care composition. The HCA crystals may impart an undesirable feel to the composition during use (e.g., a rough or grainy feel). HCA crystal formation may also lead to a decrease in the efficacy of the HCA and/or other ingredients in the composition, and/or create an undesirable consumer perception of the skin care composition or manufacturer (e.g., poor quality).
In order to avoid the formation of HCA crystals in the present low-pH compositions, the HCA should have a solubility greater than the intrinsic solubility limit of the composition. […] In this example the HCA would likely crystalize. […] See, Bevill, et al., Polymorphic Cocrystals of Nutraceutical Compound p-Coumaric Acid with Nicotinamide: Characterization, Relative Solid-State Stability, and Conversion to Alternate Stoichiometries, Cryst. Growth Des. 2014, 14, 3, 1438-1448; 2014.

A short description of series [1]: Fraction of p-coumaric acid present as conjugate base (acid dissociation) by pH. The series is classed as physicochemical. The conditions noted are these: pH 3.
From the text: as §1

Converted amounts (≈) assume the structure as drawn.

For `O=C(O)/C=C/c1ccc(O)cc1` [p-coumaric acid], the solubility – broadly, the dissolved amount per volume that the medium holds – in “physchem” (pH 3, aqueous buffer) is 4000 µg/mL (≈ 24.4 mM); in “physchem” (pH 7, aqueous buffer) it was about 345000 µg/mL (≈ 2100 mM). The “conjugate base form present” value in series [1] is reported as “approximately 13.4%”.

The compound hydroxycinnamic acid [HCA] showed an intrinsic solubility in “physchem” (pH 3.8) of 6800 µg/mL.

Values taken from US12036298B2, “Skin care composition and method for treating post-acne marks” (The Procter & Gamble Company, priority 2021, dated 2024).
